According to a compilation of properties of binary mixtures (doi:10.1016/j.jct.2017.07.022):

Assay: xn = mol fraction of the nth substance listed
Conditions: 100 kPa

CC[n+]1ccccc1.N#C[N-]C#N + CC(C)O
viscosity [mPa·s]
Conditions	x2 = 0	x2 = 0.1055	x2 = 0.1999	x2 = 0.2997	x2 = 0.4023	x2 = 0.499	x2 = 0.5998	x2 = 0.7006	x2 = 0.8007	x2 = 0.8997
288.15 K	25.9	21.3	18.3	–	12.3	10	8.04	6.15	4.78	3.75
293.15 K	22.1	–	15.6	12.9	10.7	8.68	7.02	5.39	4.18	3.28
298.15 K	18.9	15.6	13.4	11.2	–	7.61	6.19	4.77	3.7	2.89
303.15 K	16.4	13.5	11.6	9.83	8.17	6.72	–	4.24	3.29	2.55
308.15 K	14.3	11.7	10.1	8.69	7.24	6	4.91	–	2.95	–
313.15 K	–	10.3	8.9	7.72	6.47	5.38	–	–	–	2.03
318.15 K	11	9.08	7.9	6.92	5.82	4.85	–	–	2.41	1.83

CC[n+]1ccccc1.N#C[N-]C#N + CCCO
viscosity [mPa·s]
Conditions	x2 = 0	x2 = 0.1095	x2 = 0.1947	x2 = 0.3011	x2 = 0.4029	x2 = 0.5008	x2 = 0.6003	x2 = 0.702	x2 = 0.8012	x2 = 0.9
288.15 K	25.9	–	–	15.2	12	9.7	7.73	5.99	–	3.48
293.15 K	–	17.7	15.3	–	10.4	8.45	6.78	5.28	–	3.09
298.15 K	18.9	15.3	13.1	11.7	9.11	–	6	4.7	3.61	–
303.15 K	16.4	13.2	11.3	10.3	–	6.6	5.34	–	3.24	2.48
308.15 K	14.3	11.4	–	9.11	7.14	–	4.79	3.78	–	–
313.15 K	12.5	9.9	–	8.13	6.39	–	4.33	3.42	2.65	2.03
318.15 K	–	8.74	7.85	7.35	5.76	–	3.93	–	2.42	–

CC[n+]1ccccc1.N#C[N-]C#N + CCO
viscosity [mPa·s]
Conditions	x2 = 0	x2 = 0.1008	x2 = 0.1974	x2 = 0.3008	x2 = 0.3994	x2 = 0.5058	x2 = 0.5994	x2 = 0.6996	x2 = 0.7999	x2 = 0.9011
288.15 K	–	–	16.8	13.4	10.5	7.99	6.13	4.66	3.05	2.24
293.15 K	22.1	–	14.4	11.7	9.23	7.07	5.46	4.22	2.78	2.02
298.15 K	–	15.4	–	–	8.19	6.31	4.91	3.85	–	1.86
303.15 K	16.4	13.3	10.9	9.23	7.34	5.69	4.47	3.49	2.31	–
308.15 K	14.3	11.5	9.58	8.28	6.61	–	4.08	3.19	2.12	1.55
313.15 K	12.5	10.1	8.51	7.45	–	–	–	–	1.94	1.42
318.15 K	11	–	7.62	6.74	–	4.31	3.44	2.68	1.79	1.31

CC(C)O + CC[n+]1ccccc1.N#C[N-]C#N
x1 = 1
Conditions	viscosity [mPa·s]
288.15 K	2.83
293.15 K	2.42
298.15 K	2.08
303.15 K	1.8
308.15 K	1.56
313.15 K	1.33
318.15 K	1.17

CCCO + CC[n+]1ccccc1.N#C[N-]C#N
x1 = 1
Conditions	viscosity [mPa·s]
293.15 K	2.22
298.15 K	1.97
303.15 K	1.75
308.15 K	1.56
313.15 K	1.36
318.15 K	1.23

CCO + CC[n+]1ccccc1.N#C[N-]C#N
x1 = 1
Conditions	viscosity [mPa·s]
293.15 K	1.17
298.15 K	1.07
303.15 K	0.975
308.15 K	0.89
313.15 K	0.815
318.15 K	0.747
